In patent publication US12441725B2, “ISO-citrate dehydrogenase (IDH) inhibitor” (ZHEJIANG METON PHARMACEUTICAL CO., LTD, priority 2019, dated 2025):
pIC50: −log10 of the molar value.

Tests used:
IDH1 R132C = molecular target: T1, IDH1 R132C (Homo sapiens, UniProt O75874, R132C); assay: Biochemical assay for IDH inhibition (NADPH fluorescence), mutant IDH1 R132C; conditions: 25 nM IDH1-R132C, 1 hour pre-incubation, in triplet
T1 construct: 6xHis
Source text: (§1) The present disclosure provides a biochemical assay method for detecting the IDH inhibition and selectivity of the compounds by detecting IDH enzyme activity directly.
(§2) Wild-type IDH enzymes convert NADP^+ to NADPH when catalyzing the α-KG producing reaction. Mutant IDH enzymes convert NADPH to NADP^+ when catalyzing the D-2-HG producing reaction. So, the activity of wild-type and mutant IDH1/2 could be measured by monitoring NADPH level change as NADPH is fluorescent (Excitation 340 nm, Emission 460 nm). By monitoring the change of NADPH level in the reaction, the enzyme activity could be determined rapidly and efficiently and IC50 of a compound could also be assayed.
(§3) The test compounds are prepared into 50 mM stock solutions in DMSO and stored at −20° C. Each test compound stock is further diluted to obtain a 100× stock solution at a concentration of 400 μM, 200 μM, 100 μM, 50 μM, 25 μM, 12.5 μM, 6.25 μM and 3.125 μM, respectively, for the final use on the day of test (the concentration range of 100× stock solutions might be adjusted to cover the estimated IC50 of a specific test compound).
(§4) Inhibition of Mutant IDH1 (R132H or R132C):
(§5) To assay the enzymatic activity of mutant IDH1 proteins, 25 nM IDH1-R132C or 50 nM IDH1-R132H protein solutions are prepared in 20 mM Tris-HCl pH7.5, 150 mM NaCl, 10 mM MgCl2, 1 mM DTT, 0.05 mg/ml BSA and 1.33 mM α-KG. 148 μL 25 nM IDH1-R132C or 50 nM IDH1-R132H protein solutions are mixed with 2 μL DMSO (vehicle control for test compounds) or an above-mentioned 100× stock solution of a test compound and incubated for 1 hour at room temperature. Extra reactions containing 148 μL no-enzyme solution (20 mM Tris-HCl pH7.5, 150 mM NaCl, 10 mM MgCl2, 1 mM DTT, 0.05 mg/ml BSA and 1.33 mM α-KG) and 2 μL DMSO are also set up as background controls. Then each reaction is initiated by adding 50 μL 80 μM NADPH solution prepared in 20 mM Tris-HCl pH7.5, 150 mM NaCl, 10 mM MgCl2, 1 mM DTT and 0.05 mg/ml BSA. BioTek Synergy H1 Microplate reader (BioTek Instruments Inc., Winooski, U.S.) is employed to monitor the NADPH fluorescence (Excitation 340 nm, Emission 460 nm) every 42 seconds for 15 minutes. NADPH change rate is determined according to the linear phase of the fluorescence-time curve and results from the background control reactions are used as background subtraction to calculate the net NADPH change rates of other reactions. The net NADPH change rates from the vehicle control reactions are used as 100% enzymatic activity and thus the relative enzymatic activity of reactions with test compounds added could be determined. Then a dose-response curve is drawn for each test compound and the corresponding IC50 is calculated. The IC50 value is used to evaluate the inhibition and selectivity of each test compound on the IDH enzymatic activity.
(§6) The IDH inhibition activity of the compounds were assessed according to Test 2 of the Biological Assay section. The test for mutant IDH1 R132H and IDH1 R132C inhibition of each compound was carried out in triplet. As used in Table 5, “A” refers to an inhibitory activity against IDH1 R132H or IDH1 R132C with an IC50<0.1 μM; “B” refers to an inhibitory activity against IDH1 R132H or IDH1 R132C with an IC50 from 0.1 μM to 0.5 μM; “C” refers to an inhibitory activity against IDH1 R132H or IDH1 R132C with an IC50 from 0.5 μM to 1 μM; “D” refers to an inhibitory activity against IDH1 R132H or IDH1 R132C with an IC50>1 μM.

IDH1 R132H = molecular target: T2, IDH1 R132H (Homo sapiens, UniProt O75874, R132H); assay: Biochemical assay for IDH inhibition (NADPH fluorescence), mutant IDH1 R132H; conditions: 50 nM IDH1-R132H, 1 hour pre-incubation, in triplet
T2 construct: 6xHis
Source text: as §1, §2, §3, §4, §5, §6

[1] = molecular target: T3, IDH (endogenous IDH1 R132C) in HT1080 cell (Homo sapiens, UniProt O75874, R132C); assay: Cell-based assay for IDH inhibition (decrease of D-2-HG) in HT1080 cells; conditions: human fibrosarcoma cell line HT1080, 16 hours treatment, D-2-HG by LC-MS, in triplet
T3 construct: which harbor endogenous heterozygous IDH1 R132C and R132H mutation respectively and accumulate D-2-HG
Source text: The present disclosure also provides a cell-based method for assaying IDH inhibition and selectivity of the compounds in human fibrosarcoma cell line HT1080 and cholangiocarcinoma cell line HCCC 9810, which harbor endogenous heterozygous IDH1 R132C and R132H mutation respectively and accumulate D-2-HG. Tumor -derived IDH mutant lost its normal activity of producing α-KG, and gained a new activity of producing D-2-HG. D-2-HG is a metabolite specifically elevated in tumor cells expressing mutant IDH1 or IDH2 proteins. When treating such mutant IDH-expressing tumor cells with an effective IDH inhibitor, the synthesis of D-2-HG is blocked, and D-2-HG concentration is decreased by the oxidation reaction catalyzed by the endogenous D-2-HG dehydrogenase.
To perform a cell-based IDH inhibition assay, HT1080 and HCCC 9810 cells (or other cell lines harboring different IDH mutations) are cultured in DMEM supplemented with 10% FBS. The cells are treated with compounds of present disclosure at various different concentrations. 16 hours after the treatment, culture medium supernatants are removed and cell metabolites are extracted by 40% methanol and 40% acetonitrile in water (pre-chilled under −80° C.) at 4° C. for 1 hour. The extract supernatants are collected and cell debris are removed via high speed centrifugation. The resulting metabolite extracts are analyzed on an Agilent LC-MS system (model: 1290-6470) for 2-HG and glutamate concentration. A HILIC-Z column (2.1 mm×100 mm, […]) is employed on HPLC. Mobile phase A is 15 mM CH3COONH4 and 0.3% NH3·H2O in water. Mobile phase B is 15 mM CH3COONH4 and 0.3% NH3·H2O in 90% MeCN/10% H2O solvent. An 19% solvent A and 81% solvent B isocratic gradient method is used at a flow rate of 0.3 ml/min. D-2-HG is ionized under negative ion spray mode and detected through the multiple-reaction monitoring of a mass transition pair at m/z=147.0/128.9 and 147.0/85.1. Glutamate is ionized under ion spray mode and detected on negative polarity multiple-reaction monitoring of a mass transition pair at m/z=146/102 and 146/128 and its level is used to normalize 2-HG concentration. The activity of cellular mutant IDH proteins in the presence of each test compound at different concentrations can be represented by relative D-2-HG concentration to negative control samples (i.e., cells are treated with DMSO only), and the IC50 value could be determined to evaluate the inhibition and selectivity of each test compound on the IDH enzymatic activity.
The IDH inhibition activity of the compounds were assessed in human fibrosarcoma cell line HIT1080 according to Test 3 of the Biological Assay section. The test for IDH inhibition of each compound was carried out in triplet. As used in Table 6, “A” refers to an IDH inhibitory activity with an IC50<0.1 μM; “B” refers to an IDH inhibitory activity with an IC50 from 0.1 μM to 0.5 μM; “C” refers to an IDH inhibitory activity with an IC50 from 0.5 μM to 1 μM; “D” refers to an IDH inhibitory activity with an IC50>1 μM.

T3 sequence (O75874 2-414 R132C): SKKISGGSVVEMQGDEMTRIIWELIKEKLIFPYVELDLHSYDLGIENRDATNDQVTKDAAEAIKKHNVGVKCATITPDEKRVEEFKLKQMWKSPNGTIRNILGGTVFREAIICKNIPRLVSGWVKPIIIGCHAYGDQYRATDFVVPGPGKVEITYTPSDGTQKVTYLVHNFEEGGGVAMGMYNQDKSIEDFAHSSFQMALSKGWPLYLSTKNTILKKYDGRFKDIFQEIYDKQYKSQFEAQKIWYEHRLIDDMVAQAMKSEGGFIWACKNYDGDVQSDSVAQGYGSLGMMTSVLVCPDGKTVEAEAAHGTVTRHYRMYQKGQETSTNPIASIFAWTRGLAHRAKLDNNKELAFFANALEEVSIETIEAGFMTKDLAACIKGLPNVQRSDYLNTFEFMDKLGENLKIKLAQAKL
T1 sequence (O75874 whole entry R132C): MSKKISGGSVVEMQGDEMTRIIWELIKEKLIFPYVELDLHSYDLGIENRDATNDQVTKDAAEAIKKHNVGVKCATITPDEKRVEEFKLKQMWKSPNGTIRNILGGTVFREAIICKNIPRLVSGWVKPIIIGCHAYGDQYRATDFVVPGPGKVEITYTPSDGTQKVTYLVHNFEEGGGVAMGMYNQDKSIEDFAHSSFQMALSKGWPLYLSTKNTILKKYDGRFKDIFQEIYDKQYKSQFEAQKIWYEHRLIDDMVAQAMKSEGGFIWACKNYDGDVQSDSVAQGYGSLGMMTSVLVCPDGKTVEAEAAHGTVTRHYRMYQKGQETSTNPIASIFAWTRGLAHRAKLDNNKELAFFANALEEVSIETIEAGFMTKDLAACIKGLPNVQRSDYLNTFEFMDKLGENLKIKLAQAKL
T2 sequence (O75874 whole entry R132H): as the sequence (O75874 whole entry R132C) above, with C132H counted along it

Row | SMILES | pIC50 (IDH1 R132C) | pIC50 (IDH1 R132H) | pIC50 [1]
1 | CCN1Cc2c(ccnc2N[C@@H](C)c2ccc(Oc3ccnc(C(F)(F)F)c3)c(F)c2)C1=O [Compound 26, (S)-2-ethyl-4-((1-(3-fluoro-4-((2-(trifluoromethyl)pyridin-4-yl)oxy)phenyl)ethyl)amino)-2,3-dihydro-1H-pyrrolo[3,4-c]pyridin-1-one] | < 6.00 | < 6.00 | < 6.00
2 | CCN1Cc2c(ccnc2N[C@@H](C)c2ccc(Oc3ccnc4ccccc34)c(F)c2)C1=O [Compound 30, (S)-2-ethyl-4-((1-(3-fluoro-4-(quinolin-4-yloxy)phenyl)ethyl)amino)-2,3-dihydro-1H-pyrrolo[3,4-c]pyridin-1-one] | < 6.00 | 6.00 to 6.30 | < 6.00
3 | CCN1Cc2c(ccnc2N[C@@H](C)c2ccc(Nc3ccccc3)c(F)c2)C1=O [Compound 32, (S)-2-ethyl-4-((1-(3-fluoro-4-(phenylamino)phenyl)ethyl)amino)-2,3-dihydro-1H-pyrrolo[3,4-c]pyridin-1-one] | < 6.00 | < 6.00 | < 6.00
4 | CCN1Cc2c(ccnc2N[C@@H](C)c2ccc(C3CCN(C(C)(C)C)CC3)c(F)c2)C1=O [Compound 36, (S)-4-((1-(4-(1-(tert-butyl)piperidin-4-yl)-3-fluorophenyl)ethyl)amino)-2-ethyl-2,3-dihydro-1H-pyrrolo[3,4-c]pyridin-1-one] | < 6.00 | < 6.00 | < 6.00

More lines, now with the values ahead:

Row | pIC50 (IDH1 R132C) | pIC50 (IDH1 R132H) | pIC50 [1] | SMILES
5 | < 6.00 | < 6.00 | < 6.00 | CCN1Cc2c(ccnc2N[C@@H](C)c2ccc(OC3CCC(F)(F)C3)c(F)c2)C1=O (stereo partly drawn) [Compound 27, 4-(((1S)-1-(4-((3,3-difluorocyclopentyl)oxy)-3-fluorophenyl)ethyl)amino)-2-ethyl-2,3-dihydro-1H-pyrrolo[3,4-c]pyridin-1-one]
6 | < 6.00 | < 6.00 | < 6.00 | CCN1Cc2c(ccnc2N[C@@H](C)c2ccc(OCC3CNC3)c(F)c2)C1=O [Compound 28, (S)-4-((1-(4-(azetidin-3-ylmethoxy)-3-fluorophenyl)ethyl)amino)-2-ethyl-2,3-dihydro-1H-pyrrolo[3,4-c]pyridin-1-one]
7 | 6.00 to 6.30 | 6.30 to 7.00 | < 6.00 | CCN1Cc2c(ccnc2N[C@@H](C)c2ccc(Oc3ccc4c(c3)CCN4C)c(F)c2)C1=O [Compound 29, (S)-2-ethyl-4-((1-(3-fluoro-4-((1-methylindolin-5-yl)oxy)phenyl)ethyl)amino)-2,3-dihydro-1H-pyrrolo[3,4-c]pyridin-1-one]
8 | < 6.00 | < 6.00 | < 6.00 | CCN1Cc2c(ccnc2N[C@@H](C)c2ccc(N(C)c3ccccc3)c(F)c2)C1=O [Compound 31, (S)-2-ethyl-4-((1-(3-fluoro-4-(methyl(phenyl)amino)phenyl)ethyl)amino)-2,3-dihydro-1H-pyrrolo[3,4-c]pyridin-1-one]
9 | < 6.00 | 6.00 to 6.30 | < 6.00 | CCN1Cc2c(ccnc2N[C@@H](C)c2ccc(-c3ccc(C(F)(F)F)cc3)c(F)c2)C1=O [Compound 33, (S)-2-ethyl-4-((1-(2-fluoro-4′-(trifluoromethyl)-[1,1′-biphenyl]-4-yl)ethyl)amino)-2,3-dihydro-1H-pyrrolo[3,4-c]pyridin-1-one]
10 | < 6.00 | < 6.00 | < 6.00 | CCN1Cc2c(ccnc2N[C@@H](C)c2ccc(-c3ccnc(C(F)(F)F)c3)c(F)c2)C1=O [Compound 34, (S)-2-ethyl-4-((1-(3-fluoro-4-(2-(trifluoromethyl)pyridin-4-yl)phenyl)ethyl)amino)-2,3-dihydro-1H-pyrrolo[3,4-c]pyridin-1-one]
11 | < 6.00 | < 6.00 | < 6.00 | CCN1Cc2c(ccnc2N[C@@H](C)c2ccc(C3=CCN(C(C)(C)C)CC3)c(F)c2)C1=O [Compound 35, (S)-4-((1-(4-(1-(tert-butyl)-1,2,3,6-tetrahydropyridin-4-yl)-3-fluorophenyl)ethyl)amino)-2-ethyl-2,3-dihydro-1H-pyrrolo[3,4-c]pyridin-1-one]
